This note sets out measurements from ChEMBL document CHEMBL5223129, “Antioxidant, Anti-inflammatory, and Immunomodulatory Roles of Nonvitamin Antioxidants in Anti-SARS-CoV-2 Therapy” (J Med Chem, 2022).

This assay relates to SARS-CoV-2. In words: Antiviral activity against pseudovirus SARS-CoV-2 spike protein infected human HEK293T cells overexpressing ACE2 assessed as inhibition of viral infection incubated for 96 hrs by GFP fluorescence based method. In kind it is functional, organism-based. Particulars: Severe acute respiratory syndrome coronavirus 2, HEK-293T.

For `CC1=C[C@H](O)CC(C)(C)[C@H]1/C=C/C(C)=C/C=C/C(C)=C/C=C/C=C(C)/C=C/C=C(\CO)C(=O)CC1=C(C)C[C@@H](O)CC1(C)C`, the concentration for half-maximal inhibition (IC50) is 87.4 µM.

For orientation: IC50 means the concentration that gives 50% inhibition.
